Measured values from patent US11066414B2, “Cot modulators and methods of use thereof” (Gilead Sciences, Inc., priority 2015, dated 2021).

The molecules below were run on TNFα (assay: Cot Monocyte TNFα Cell Based Assay). Conditions: Homo sapiens, Monocyte, read-out: EC50 TNF, LPS-stimulated human monocytes, TNFα.
`CCN1CCC(n2cc([C@@H](Nc3cc(Cl)c4ncc(C#N)c(Nc5ccc(F)c(Cl)c5)c4c3)c3ccc4cccnc4c3)nn2)CC1` [Example 65, (S)-8-chloro-4-((3-chloro-4-fluorophenyl)amino)-6-(((1-(1-ethylpiperidin-4-yl)-1H-1,2,3-triazol-4-yl)(quinolin-7-yl)methyl)amino)quinoline-3-carbonitrile] showed an EC50 of 538 nM.
Molecule `N#Cc1cnc2c(Cl)cc(N[C@@H](c3cscn3)c3cn(C4CCNCC4)nn3)cc2c1Nc1ccc(F)c(Cl)c1` [Example 354, (S)-8-chloro-4-((3-chloro-4-fluorophenyl)amino)-6-(((1-(piperidin-4-yl)-1H-1,2,3-triazol-4-yl)(thiazol-4-yl)methyl)amino)-quinoline-3-carbonitrile] has an EC50 of 983 nM.
For `Cc1nc(F)ccc1[C@H](Nc1cc(C#N)c2ncc(C#N)c(NCC(C)(C)C)c2c1)c1cn(C(C)(C)C)nn1` [Example 589, (S)-6-(((1-(tert-butyl)-1H-1,2,3-triazol-4-yl)(6-fluoro-2-methylpyridin-3-yl)methyl)amino)-4-(neopentylamino)quinoline-3,8-dicarbonitrile], the EC50 was 34 nM.
With `Cn1cnc([C@H](Nc2cc(Cl)c3ncc(C#N)c(Nc4ccc(F)c(Cl)c4)c3c2)c2c[nH]nn2)c1` [Example 266, (S)-8-chloro-4-((3-chloro-4-fluorophenyl)amino)-6-(((1-methyl-1H-imidazol-4-yl)(1H-1,2,3-triazol-4-yl)methyl)amino)-quinoline-3-carbonitrile] the EC50 was 28800 nM.
For `CC(C)n1cc([C@@H](Nc2cc(Cl)c3ncc(C#N)c(Nc4ccc(F)c(Cl)c4)c3c2)c2csc(N3CCOCC3)n2)nn1` [Example 301, (S)-8-chloro-4-((3-chloro-4-fluoro-phenyl)amino)-6-(((1-isopropyl-1H-1,2,3-triazol-4-yl)(2-morpholinothiazol-4-yl)methyl)amino)quinoline-3-carbonitrile], the EC50 was 414 nM.
`Cc1ccc([C@H](Nc2cc(Cl)c3ncc(C#N)c(Nc4ccc(F)c(Cl)c4)c3c2)c2cn(C(C)C)nn2)cn1` [Example 280, (S)-8-chloro-4-((3-chloro-4-fluorophenyl)amino)-6-(((1-isopropyl-1H-1,2,3-triazol-4-yl)(6-methylpyridin-3-yl)methyl)amino)quinoline-3-carbonitrile] showed an EC50 of 811 nM.
`Cc1nc(F)ccc1[C@H](Nc1cc(Cl)c2ncc(C#N)c(NCC(C)(C)C)c2c1)c1cn(CC2(C(F)(F)F)CC2)nn1` [Example 751, (S)-8-chloro-6-(((6-fluoro-2-methylpyridin-3-yl)(1-((1-(trifluoromethyl)-cyclopropyl)methyl)-1H-1,2,3-triazol-4-yl)methyl)amino)-4-(neopentylamino)quinoline-3-carbonitrile] gave an EC50 of 230 nM.
`N#Cc1cnc2c(Cl)cc(N[C@@H](C3=CCOCC3)c3c[nH]nn3)cc2c1Nc1cnc(F)c(F)c1` [Example 156, (S)-8-chloro-4-((5,6-difluoropyridin-3-yl)amino)-6-(((3,6-dihydro-2H-pyran-4-yl)(1H-1,2,3-triazol-4-yl)methyl)amino)quinoline-3-carbonitrile] gave an EC50 of 1190 nM.
`CC(C)(C)CNc1c(C#N)cnc2c(Cl)cc(N[C@@H](c3ccc(Cl)nc3)c3cn(C4(C(F)(F)F)CC4)nn3)cc12` [Example 793, (S)-8-chloro-6-(((6-chloropyridin-3-yl)(1-(1-(trifluoromethyl)cyclopropyl)-1H-1,2,3-triazol-4-yl)methyl)amino)-4-(neopentylamino)quinoline-3-carbonitrile] gave an EC50 of 782 nM.
In the case of `COc1ccnc2cccc([C@H](Nc3cc(Cl)c4ncc(C#N)c(NCC(C)(C)C)c4c3)c3cn(C4(C(F)(F)F)CC4)nn3)c12` [Example 632, (S)-8-chloro-6-(((4-methoxyquinolin-5-yl)(1-(1-(trifluoromethyl)cyclopropyl)-1H-1,2,3-triazol-4-yl)methyl)amino)-4-(neopentylamino)quinoline-3-carbonitrile], the EC50 is reported as 1000 nM.
`CC(C)(C)CNc1c(C#N)cnc2c(Cl)cc(N[C@H](c3cn(C(C)(C)C(F)F)nn3)c3cccc4ncccc34)cc12` [Example 693, (S)-8-chloro-6-(((1-(1,1-difluoro-2-methylpropan-2-yl)-1H-1,2,3-triazol-4-yl)(quinolin-5-yl)methyl)amino)-4-(neopentylamino)quinoline-3-carbonitrile] showed an EC50 of 141 nM.
For `Cc1ncccc1[C@H](Nc1cc(Cl)c2ncc(C#N)c(Nc3ccc(F)c(Cl)c3)c2c1)c1cn(COC(=O)C(C)(C)C)nn1` [Example 274, (S)-(4-(((8-chloro-4-((3-chloro-4-fluorophenyl)amino)-3-cyanoquinolin-6-yl)amino)(2-methylpyridin-3-yl)methyl)-1H-1,2,3-triazol-1-yl)methyl pivalate], the EC50 was 370 nM.
`CC(C)(C)CNc1c(C#N)cnc2c(Cl)cc(N[C@H](c3cn(C4(C(F)(F)F)CC4)nn3)c3cccn4cncc34)cc12` [Example 599, (S)-8-chloro-6-((imidazo[1,5-a]pyridin-8-yl(1-(1-(trifluoromethyl)cyclopropyl)-1H-1,2,3-triazol-4-yl)methyl)amino)-4-(neopentylamino)quinoline-3-carbonitrile] showed an EC50 of 316 nM.
`Cc1nc(F)ccc1[C@H](Nc1cc(C#N)c2ncc(C#N)c(N[C@@H](c3ccccc3)C3CC3)c2c1)c1cn(C2(C(F)(F)F)CC2)nn1` [Example 613, 4-(((R)-cyclopropyl(phenyl)methyl)amino)-6-(((S)-(6-fluoro-2-methylpyridin-3-yl)(1-(1-(trifluoromethyl)cyclopropyl)-1H-1,2,3-triazol-4-yl)methyl)amino)quinoline-3,8-dicarbonitrile] was tested, and the EC50 was 144 nM.
`Cc1nc(F)ccc1[C@H](Nc1cc(C#N)c2ncc(C#N)c(NCC(C)(C)C#N)c2c1)c1cn(C2(C(F)(F)F)CC2)nn1` [Example 615, (S)-4-((2-cyano-2-methylpropyl)amino)-6-(((6-fluoro-2-methylpyridin-3-yl)(1-(1-(trifluoromethyl)cyclopropyl)-1H-1,2,3-triazol-4-yl)methyl)amino)quinoline-3,8-dicarbonitrile] showed an EC50 of 588 nM.
`CC(C)(C)n1cc([C@@H](Nc2cc(Cl)c3ncc(C#N)c(Nc4ccc(F)c(Cl)c4)c3c2)c2cscn2)nn1` [Example 361, (S)-6-(((1-(tert-butyl)-1H-1,2,3-triazol-4-yl)(thiazol-4-yl)methyl)-amino)-8-chloro-4-((3-chloro-4-fluorophenyl)amino)quinoline-3-carbonitrile] was tested, and the EC50 was 746 nM.
In the case of `N#Cc1cnc2c(Cl)cc(N[C@H](c3c[nH]nn3)c3cccnc3Cl)cc2c1Nc1cnc(F)c(F)c1` [Example 161, (S)-8-chloro-6-(((2-chloropyridin-3-yl)(1H-1,2,3-triazol-4-yl)methyl)amino)-4-((5,6-difluoropyridin-3-yl)amino)quinoline-3-carbonitrile], the EC50 is reported as 1670 nM.
With `Cn1ccc2c([C@H](Nc3cc(C#N)c4ncc(C#N)c(NCC(C)(C)C)c4c3)c3cn(C4(C(F)(F)F)CC4)nn3)ccnc21` [Example 664, (S)-6-(((1-methyl-1H-pyrrolo[2,3-b]pyridin-4-yl)(1-(1-(trifluoromethyl)cyclopropyl)-1H-1,2,3-triazol-4-yl)methyl)amino)-4-(neopentylamino)quinoline-3,8-dicarbonitrile] the EC50 was 154 nM.

Same assay, conditions: Homo sapiens, Monocyte, read-out: EC50 TNF, LPS-stimulated human monocytes, TNFα TR-FRET
Molecule `CC(C)(C)CNc1c(C#N)cnc2c(C#N)cc(N[C@H](c3cn(C4(C(F)(F)F)CC4)nn3)c3cccc4c(C#N)nccc34)cc12` [Example 817, (S)-6-(((1-cyanoisoquinolin-5-yl)(1-(1-(trifluoromethyl)cyclopropyl)-1H-1,2,3-triazol-4-yl)methyl)amino)-4-(neopentylamino)quinoline-3,8-dicarbonitrile] has an EC50 of 116 nM.
`COc1ccc(C(Nc2cc(Cl)c3ncc(C#N)c(NCC(C)(C)C)c3c2)c2nnn(C)c2OC)c(C)n1` (stereo not drawn) [Example 970, 8-chloro-6-(((5-methoxy-1-methyl-1H-1,2,3-triazol-4-yl)(6-methoxy-2-methylpyridin-3-yl)methyl)amino)-4-(neopentylamino)quinoline-3-carbonitrile] showed an EC50 of 722 nM.
`CC(C)(C)CNc1c(C#N)cnc2c(Cl)cc(N[C@H](c3nnn(C4(C(F)F)CC4)c3F)c3cccc4ncccc34)cc12` [Example 962, (S)-8-chloro-6-(((1-(1-(difluoromethyl)cyclopropyl)-5-fluoro-1H-1,2,3-triazol-4-yl)(quinolin-5-yl)methyl)amino)-4-(neopentylamino)quinoline-3-carbonitrile] showed an EC50 of 135 nM.
In the case of `COc1c(C(Nc2cc(C#N)c3ncc(C#N)c(NCC(C)(C)C)c3c2)c2ccc(F)nc2C)nnn1C` (stereo not drawn) [Example 908, 6-(((6-fluoro-2-methylpyridin-3-yl)(5-methoxy-1-methyl-1H-1,2,3-triazol-4-yl)methyl)amino)-4-(neopentyl-amino)quinoline-3,8-dicarbonitrile], the EC50 is reported as 238 nM.

Same assay, conditions: read-out: EC50 TNF; LPS-stimulated human monocytes, TNFα
With `CC(C)(C)N1CCC(n2cc([C@@H](Nc3cc(Cl)c4ncc(C#N)c(Nc5ccc(F)c(Cl)c5)c4c3)c3ccc4ncsc4c3)nn2)CC1` [Example 63, (S)-6-((benzo[d]thiazol-6-yl(1-(1-(tert-butyl)pipcridin-4-yl)-1H-1,2,3-triazol-4-yl)methyl)amino)-8-chloro-4-((3-chloro-4-fluorophenyl)amino)quinoline-3-carbonitrile] the EC50 was 257 nM.
`CC(C)(C)CNc1c(C#N)cnc2c(C#N)cc(N[C@H](c3cn(C4(C(F)F)CC4)nn3)c3cccc4cnccc34)cc12` [Example 551] gave an EC50 of 27 nM.
Work on `CC(C)(C)N1CCC(n2cc([C@@H](Nc3cc(Cl)c4ncc(C#N)c(Nc5cnc(F)c(F)c5)c4c3)c3cccnc3)nn2)CC1` [Example 208] yielded an EC50 of 465 nM.

Same assay, conditions: read-out: EC50 TNF; LPS-stimulated human monocytes, TNFα TR-FRET
In the case of `Cc1nc(F)ccc1[C@H](Nc1cc(Cl)c2ncc(C#N)c(NCC(C)(C)C)c2c1)c1nnn2c1OCCC2` [Example 985, (S)-8-chloro-6-(((6,7-dihydro-5H-[1,2,3]triazolo[5,l-b][1,3]oxazin-3-yl)(6-fluoro-2-methylpyridin-3-yl)methyl)amino)-4-(neopentylamino)quinoline-3-carbonitrile], the EC50 is reported as 126 nM.

Same assay, conditions: second value of the cell IC50/EC50; LPS-stimulated human monocytes, TNFα by TR-FRET
`Cn1cc(CNc2cc(Cl)c3ncc(C#N)c(Nc4ccc(F)c(Cl)c4)c3c2)nn1` [Comparative Example 3, reference compound] was tested, and the “IC50/EC50 [nM]: EC50 (TNFα)” value was over 10000 nM.
